Data reported in US20130011480A1, “CYTOTOXIC THERAPY BY PROTON FLUX MODULATION” (priority 2011, published 2013).
Counter-ions that a name gives are not always drawn. Like-named read-outs stand apart in the source and are kept apart here.

Tests used:
proton pump = proton pump (Homo sapiens, UniProt P20648); conditions: compared with classical PPIs; cited from earlier work
[1] = Cancer patients treated orally with acid-efflux inhibitor combinations: side effects; assay type: in vivo, human
Description: Patients have been treated orally with a combination of drugs that inhibit the efflux of acid (H+, CO2, and/or lactic acid). Although these drugs tend to alkalinize the extracellular milieu of cancer cells, they may be administered in combinations that achieve a metabolic acidosis.
Esomeprazole (vacuolar H+ ATPase pump inhibitor) was used either daily or every other day, with a dose ranging from 240 mg per day up to 320 mg per day, or more.
Methazolamide (a carbonic anhydrase inhibitor) was used every other day with a dose ranging from 50 mg per day up to a maximum of 400 mg per day. […] Side effects were especially noticeable in a patient with elevated liver function tests due to metastatic disease to the liver.
Amiloride (Na−H+ exchanger inhibitor and an inhibitor of urokinase plasminogen activator) was used daily at a dose of 20 mg per day, or more. Because amiloride is a potassium-sparing diuretic, with a propensity to cause hyperkalemia, HCTZ, at 25 mg 2 times per day was administered as well. In addition, the use of amiloride in combination with HCTZ has shown to inhibit metastases more effectively than when amiloride is used alone.
NaHCO3 (Arm & Hammer Baking Soda) was used daily, in some cases, at a dose ranging from 5 grams to 30 grams per day, or more.
Intravenous lactate and/or glucose (with or without insulin) are useful for potentiating this therapy. […]

human melanoma [2] = conditions: well-tolerated doses; cited from earlier work
[3] = test system: subcutaneous xenografted Huh-7 cells; conditions: 1 or 10 mg/kg/d subcutaneously, 2 weeks, cited from earlier work
[4] = test system: isolated normal rat hepatocyte; conditions: 72 hours' treatment; read-out: 50% inhibitory concentrations (IC(50)); cited from earlier work
Huh-7 cells = conditions: cited from earlier work
[5] = test system: Na+-independent Cl−/HCO3− exchange; conditions: cited from earlier work
NHE1 = NHE1 (Homo sapiens, UniProt P19634); conditions: NHE1 inhibition; cited from earlier work
human breast cancer = conditions: chronic oral administration; cited from earlier work
hepatoblastoma cells = conditions: morphological observations and flow cytometry; cited from earlier work
[6] = test system: normal human hepatic cells; conditions: treated versus untreated cells; cited from earlier work
[7] = test system: high-voltage-activated Ca2+ channels; conditions: hippocampal CA1 neurons; cited from earlier work
K+ channels = conditions: 100-500 μM; cited from earlier work
CA3 neurons [8] = conditions: cited from earlier work
CA3 neurons [9] = conditions: 50 μM; CO2/HCO3−-buffered; cited from earlier work
N-type Ca2+ channel = molecular target: T1, N-type Ca2+ channel (Homo sapiens, UniProt Q00975); conditions: calculated for 50 μM; cited from earlier work
T1 construct: N-type Ca2+ channels of hippocampal CA1 neurons; host or cells: hippocampal CA1 neurons

[10] = raises metabolic rate and promotes weight loss; cited from earlier work
[11] = as low as; dose dependent; cited from earlier work
human melanoma [12] = conditions: preadministration; cited from earlier work

Chain of proton pump (P20648 whole entry): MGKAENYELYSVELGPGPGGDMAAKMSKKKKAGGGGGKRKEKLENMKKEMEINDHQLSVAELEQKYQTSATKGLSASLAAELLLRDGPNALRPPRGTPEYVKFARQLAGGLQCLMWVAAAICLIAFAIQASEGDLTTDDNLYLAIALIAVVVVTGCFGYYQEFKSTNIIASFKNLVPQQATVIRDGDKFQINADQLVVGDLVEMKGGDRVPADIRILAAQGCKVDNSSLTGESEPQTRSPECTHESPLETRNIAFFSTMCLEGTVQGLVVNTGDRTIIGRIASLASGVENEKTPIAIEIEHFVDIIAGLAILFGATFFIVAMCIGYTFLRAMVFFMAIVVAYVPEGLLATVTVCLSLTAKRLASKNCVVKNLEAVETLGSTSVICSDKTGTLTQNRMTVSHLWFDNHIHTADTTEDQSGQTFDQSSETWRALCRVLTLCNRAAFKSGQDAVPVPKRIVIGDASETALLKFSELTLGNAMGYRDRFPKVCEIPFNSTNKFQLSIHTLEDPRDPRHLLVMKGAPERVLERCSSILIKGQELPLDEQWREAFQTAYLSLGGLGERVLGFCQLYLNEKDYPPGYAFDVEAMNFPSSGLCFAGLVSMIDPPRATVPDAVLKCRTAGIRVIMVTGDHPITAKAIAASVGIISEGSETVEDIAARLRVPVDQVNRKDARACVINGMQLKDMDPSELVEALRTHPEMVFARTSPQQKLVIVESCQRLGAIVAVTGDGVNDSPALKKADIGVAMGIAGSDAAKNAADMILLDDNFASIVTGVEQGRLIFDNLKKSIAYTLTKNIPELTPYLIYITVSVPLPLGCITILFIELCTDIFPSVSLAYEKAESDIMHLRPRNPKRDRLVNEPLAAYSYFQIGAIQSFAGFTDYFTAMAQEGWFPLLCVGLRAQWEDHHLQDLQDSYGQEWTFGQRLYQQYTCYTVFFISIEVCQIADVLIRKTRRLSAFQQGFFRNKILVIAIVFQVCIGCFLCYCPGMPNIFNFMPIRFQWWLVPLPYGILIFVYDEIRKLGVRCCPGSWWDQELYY
Chain of proton pump (P51164 whole entry partner): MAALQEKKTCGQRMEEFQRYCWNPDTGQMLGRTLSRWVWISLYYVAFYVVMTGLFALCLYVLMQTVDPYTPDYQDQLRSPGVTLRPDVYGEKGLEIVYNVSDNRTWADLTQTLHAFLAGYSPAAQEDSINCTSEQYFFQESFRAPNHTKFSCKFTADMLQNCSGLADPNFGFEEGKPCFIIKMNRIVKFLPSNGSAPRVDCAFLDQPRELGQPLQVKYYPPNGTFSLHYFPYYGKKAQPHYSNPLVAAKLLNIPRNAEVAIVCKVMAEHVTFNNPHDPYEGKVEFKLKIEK
T1 sequence (Q00975 whole entry): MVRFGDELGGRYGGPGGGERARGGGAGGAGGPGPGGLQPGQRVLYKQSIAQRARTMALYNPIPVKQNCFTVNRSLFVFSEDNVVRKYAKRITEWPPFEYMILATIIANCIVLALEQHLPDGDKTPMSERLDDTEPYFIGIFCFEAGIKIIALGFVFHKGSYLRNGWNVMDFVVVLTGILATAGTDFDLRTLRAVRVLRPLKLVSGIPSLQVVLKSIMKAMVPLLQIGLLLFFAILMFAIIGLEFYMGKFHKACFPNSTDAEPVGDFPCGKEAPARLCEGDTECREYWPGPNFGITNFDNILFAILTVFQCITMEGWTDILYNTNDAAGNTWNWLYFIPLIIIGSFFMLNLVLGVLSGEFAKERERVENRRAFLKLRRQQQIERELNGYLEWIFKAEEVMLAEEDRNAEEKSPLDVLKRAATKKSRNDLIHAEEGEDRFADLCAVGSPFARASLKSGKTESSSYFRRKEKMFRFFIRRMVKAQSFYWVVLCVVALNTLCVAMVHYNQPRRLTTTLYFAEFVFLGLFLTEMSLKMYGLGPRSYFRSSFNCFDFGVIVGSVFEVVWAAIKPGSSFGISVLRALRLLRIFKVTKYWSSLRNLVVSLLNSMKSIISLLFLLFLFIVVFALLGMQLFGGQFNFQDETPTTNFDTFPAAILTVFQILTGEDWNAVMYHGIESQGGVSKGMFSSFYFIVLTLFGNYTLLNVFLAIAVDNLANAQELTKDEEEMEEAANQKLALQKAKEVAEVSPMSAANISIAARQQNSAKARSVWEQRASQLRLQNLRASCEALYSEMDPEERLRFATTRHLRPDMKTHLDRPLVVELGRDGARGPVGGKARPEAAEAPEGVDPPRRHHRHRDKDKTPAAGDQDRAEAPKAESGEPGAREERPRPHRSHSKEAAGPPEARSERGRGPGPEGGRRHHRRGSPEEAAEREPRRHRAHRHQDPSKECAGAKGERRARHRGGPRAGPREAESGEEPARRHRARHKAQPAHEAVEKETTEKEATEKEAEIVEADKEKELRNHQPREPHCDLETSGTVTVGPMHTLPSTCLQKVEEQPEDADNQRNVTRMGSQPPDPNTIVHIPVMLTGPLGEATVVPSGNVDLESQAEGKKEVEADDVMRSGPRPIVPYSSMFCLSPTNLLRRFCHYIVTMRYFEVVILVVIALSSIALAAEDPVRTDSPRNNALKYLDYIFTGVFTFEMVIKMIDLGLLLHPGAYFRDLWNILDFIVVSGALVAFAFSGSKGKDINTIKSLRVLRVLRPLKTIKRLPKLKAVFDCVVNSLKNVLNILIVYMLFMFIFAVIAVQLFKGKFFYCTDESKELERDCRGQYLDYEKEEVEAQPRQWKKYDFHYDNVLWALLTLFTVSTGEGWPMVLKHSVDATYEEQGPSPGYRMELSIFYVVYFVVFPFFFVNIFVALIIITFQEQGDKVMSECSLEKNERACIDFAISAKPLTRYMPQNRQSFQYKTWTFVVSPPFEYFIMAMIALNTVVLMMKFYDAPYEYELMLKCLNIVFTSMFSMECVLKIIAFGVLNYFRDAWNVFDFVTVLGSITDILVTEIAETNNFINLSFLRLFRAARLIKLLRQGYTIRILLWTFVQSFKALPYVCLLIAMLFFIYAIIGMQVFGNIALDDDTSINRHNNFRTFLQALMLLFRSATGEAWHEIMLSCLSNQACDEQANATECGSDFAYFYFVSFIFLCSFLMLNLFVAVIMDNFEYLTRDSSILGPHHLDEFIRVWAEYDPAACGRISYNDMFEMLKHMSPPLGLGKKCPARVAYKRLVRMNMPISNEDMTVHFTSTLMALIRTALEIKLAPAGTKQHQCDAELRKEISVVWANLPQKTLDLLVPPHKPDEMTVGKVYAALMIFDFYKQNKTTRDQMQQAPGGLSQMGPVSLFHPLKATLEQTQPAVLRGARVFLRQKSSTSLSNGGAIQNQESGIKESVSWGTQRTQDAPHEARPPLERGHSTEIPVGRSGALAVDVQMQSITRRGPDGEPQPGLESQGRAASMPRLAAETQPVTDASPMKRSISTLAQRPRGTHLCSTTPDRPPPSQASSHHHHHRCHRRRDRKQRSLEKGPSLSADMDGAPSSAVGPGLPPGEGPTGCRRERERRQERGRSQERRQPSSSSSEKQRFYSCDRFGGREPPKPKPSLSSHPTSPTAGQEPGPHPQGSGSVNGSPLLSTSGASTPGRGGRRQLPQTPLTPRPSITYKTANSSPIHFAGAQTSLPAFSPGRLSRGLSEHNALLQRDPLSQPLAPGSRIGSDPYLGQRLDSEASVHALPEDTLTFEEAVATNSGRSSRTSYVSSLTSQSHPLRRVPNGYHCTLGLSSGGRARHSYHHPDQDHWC
Chain of NHE1 (P19634 whole entry, species assumed): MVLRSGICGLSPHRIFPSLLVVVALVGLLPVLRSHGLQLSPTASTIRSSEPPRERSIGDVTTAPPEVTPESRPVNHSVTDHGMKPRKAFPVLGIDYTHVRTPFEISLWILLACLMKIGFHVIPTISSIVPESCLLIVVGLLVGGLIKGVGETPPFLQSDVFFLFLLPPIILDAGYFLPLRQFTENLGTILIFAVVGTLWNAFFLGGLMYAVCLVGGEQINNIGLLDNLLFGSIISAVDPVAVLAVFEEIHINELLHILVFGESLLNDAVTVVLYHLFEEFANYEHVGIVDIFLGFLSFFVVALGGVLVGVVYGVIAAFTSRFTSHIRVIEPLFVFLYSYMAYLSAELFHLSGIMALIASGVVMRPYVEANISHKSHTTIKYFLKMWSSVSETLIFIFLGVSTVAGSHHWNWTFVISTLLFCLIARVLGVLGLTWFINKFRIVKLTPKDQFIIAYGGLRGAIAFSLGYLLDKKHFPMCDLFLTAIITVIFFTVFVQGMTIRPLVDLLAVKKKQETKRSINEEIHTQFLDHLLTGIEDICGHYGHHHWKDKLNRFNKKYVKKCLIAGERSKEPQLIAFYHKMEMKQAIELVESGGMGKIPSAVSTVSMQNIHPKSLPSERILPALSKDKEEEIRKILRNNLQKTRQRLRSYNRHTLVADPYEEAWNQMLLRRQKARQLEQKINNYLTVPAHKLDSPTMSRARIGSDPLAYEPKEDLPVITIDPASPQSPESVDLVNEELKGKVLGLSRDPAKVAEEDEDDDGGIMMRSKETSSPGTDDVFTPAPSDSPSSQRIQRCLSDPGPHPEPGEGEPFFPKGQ

COCCO[C@@H]1c2ccn3c(C)c(C)nc3c2N[C@H](c2ccccc2)[C@H]1O [Soraprazan]
time to block H+ secretion (proton pump): within a half-hour

CC(=O)/N=c1/sc(S(N)(=O)=O)nn1C [Methazolamide]
side effects ([1]; every other day, 50 mg per day up to 400 mg per day): tingling in extremities, acidosis, fatigue, and nausea

COc1ccc2nc([S@@+]([O-])Cc3ncc(C)c(OC)c3C)[nH]c2c1 [esomeprazole, Esomeprazole]
tumor growth and survival (human melanoma [2]): markedly impede tumor growth and prolong survival

COC1=CC(c2ccc[nH]2)=N/C1=C\c1[nH]c(C)c2c1C(C)CCC2 (stereo not drawn) [cPrG-HCl, Cycloprodigiosin hydrochloride]
pathological changes in organs [3]: No pathological changes were observed in any organs | serum alanine transaminase levels [3]: remained within normal limits | tumor growth ([3]; compared with the control after 8 days): significantly inhibited tumor growth | IC50 [4]: 8.4 µM | pHi (Huh-7 cells; lowered pHi): < 6.8 | apoptosis (Huh-7 cells; subG(1) population, DNA fragmentation, chromatin condensation): induced apoptosis

O=S(=O)(O)c1cc(N=C=S)ccc1C=Cc1ccc(N=C=S)cc1S(=O)(=O)O [DIDS, 4,4′-diisothiocyanato-stilbene-2,2′-disulfonic acid]
alkalinization upon removal of extracellular Cl− ([5]; 500 μM, pretreatment 15 min, n=3): completely abolished

CCN(c1nc(N)c(C(=O)N=C(N)N)nc1Cl)C(C)C [EIPA, 5-(N-ethyl-N-isopropyl)-amiloride]
potency relative to amiloride (NHE1): about 200 times

O=C([O-])O.[Na+] [sodium bicarbonate]
expansion of primary tumors (human breast cancer): not influencing the expansion of primary tumors | metastases in lung, visceral organs, and lymph nodes (human breast cancer): markedly reduces the number and size of metastases | side effects ([1]; daily, 5 grams to 30 grams per day): bloating and abdominal discomfort

Cc1nc(Nc2ccc(F)cc2)nc(N2CCc3ccccc3C2C)c1C (stereo not drawn) [revaprazan]
time to block H+ secretion (proton pump): within a half-hour

CO/C1=C\C(C)=C\[C@@H](C)[C@@H](O)[C@@H](C)C/C(C)=C/C=C/[C@H](OC)[C@@H]([C@@H](C)[C@@H](O)[C@H](C)[C@@]2(O)C[C@@H](O)[C@H](C)[C@@H](C(C)C)O2)OC1=O [Baf-A1, Bafilomycin A1]
cellular reproduction and apoptosis (hepatoblastoma cells): inhibits hepatoblastoma cellular reproduction by inducing apoptosis | inhibition of cell growth [6]: negligible

CC[C@@H](C(N)=O)N1CCCC1=O [LEV, levetiracetam]
reduction of high-voltage-activated calcium currents [7]: about 20% | inhibition of K+ channels (K+ channels): less than 20% | effect on pHi (CA3 neurons [8]; 1 μM (n=4)): without any effect | effect on steady-state pHi (CA3 neurons [8]; 10 μM (n=3)): Small shifts | steady-state pHi (CA3 neurons [8]; 50 μM, Na+-free CO2/HCO3−-buffered solution, n=5): not likely further influenced | mean acidification of steady-state pHi, nonresponding neurons excluded (CA3 neurons [8]; 50 μM, neuronal somata, CO2/HCO3−-buffered solution, n=8): 0.19±0.07 pH units | mean acidification of steady-state pHi (CA3 neurons [8]; 50 μM, neuronal somata, CO2/HCO3−-buffered solution, n=11): 0.14±0.09 pH units | decrease of pHi (CA3 neurons [8]; 50 μM, nominal absence of extracellular CO2/HCO3−, HEPES pH 7.4, n=5): abolished | decrease of pHi of larger regions (CA3 neurons [8]; 50 μM, stratum pyramidale, CO2/HCO3−-buffered solution, n=5): 0.11±0.04 pH units | effect on pHi (CA3 neurons [8]; increase to 100 μM (n=4)): without additional effect | steady-state pHi after preincubation (CA3 neurons [9]): 6.82 | reduction of N-type Ca2+ channel currents (N-type Ca2+ channel): ca. 15% | alkalinization upon removal of extracellular Cl− ([5]; 50, preincubation 15 min, n=5): no effect

O=[N+]([O-])c1ccc(O)c([N+](=O)[O-])c1 [DNP, dinitrophenol]
reasonably well tolerated daily dose [10]: 3 to 5 mg/kg

N=C(N)NC(=O)c1nc(Cl)c(N)nc1N [amiloride]
doses found effective [11]: ≥ 0.3 mg/kg body weight per day

COc1ccc2[nH]c([S+]([O-])Cc3ncc(C)c(OC)c3C)nc2c1 (stereo not drawn) [omeprazole]
growth-retardant impact of cisplatin (human melanoma [12]): potentiate the growth-retardant impact of cisplatin
